Reference: doi:10.1101/2021.04.08.439011v1 (biorxiv, 2021)

Key:
Settings in all cases: 1 µM; binder
ABL1-nonphosphorylated = ABL1-nonphosphorylated (Homo sapiens, UniProt P00519)
BRAF = BRAF (Homo sapiens, UniProt P15056)
CDK19 = CDK19 (Homo sapiens, UniProt Q9BWU1)
CDK9 = CDK9 (Homo sapiens, UniProt P50750)
EGFR = EGFR (Homo sapiens, UniProt P00533)
ERBB2 = ERBB2 (Homo sapiens, UniProt P04626)
FLT1 = FLT1 (Homo sapiens, UniProt P17948)
GRK2 = GRK2 (Homo sapiens, UniProt P25098)
IKK-alpha = IKK-alpha (Homo sapiens, UniProt O15111)
MAP3K15 = MAP3K15 (Homo sapiens, UniProt Q6ZN16)
MAPKAPK2 = MAPKAPK2 (Homo sapiens, UniProt P49137)
MARK2 = MARK2 (Homo sapiens, UniProt Q7KZI7)
MINK = MINK (Homo sapiens, UniProt Q8N4C8)
MST4 = MST4 (Homo sapiens, UniProt Q9P289)
NEK9 = NEK9 (Homo sapiens, UniProt Q8TD19)
PIK3C2G = PIK3C2G (Homo sapiens, UniProt O75747)
PKAC-alpha = PKAC-alpha (Homo sapiens, UniProt P17612)
PKMYT1 = PKMYT1 (Homo sapiens, UniProt Q99640)
Sequence of PKMYT1 (Q99640 whole entry): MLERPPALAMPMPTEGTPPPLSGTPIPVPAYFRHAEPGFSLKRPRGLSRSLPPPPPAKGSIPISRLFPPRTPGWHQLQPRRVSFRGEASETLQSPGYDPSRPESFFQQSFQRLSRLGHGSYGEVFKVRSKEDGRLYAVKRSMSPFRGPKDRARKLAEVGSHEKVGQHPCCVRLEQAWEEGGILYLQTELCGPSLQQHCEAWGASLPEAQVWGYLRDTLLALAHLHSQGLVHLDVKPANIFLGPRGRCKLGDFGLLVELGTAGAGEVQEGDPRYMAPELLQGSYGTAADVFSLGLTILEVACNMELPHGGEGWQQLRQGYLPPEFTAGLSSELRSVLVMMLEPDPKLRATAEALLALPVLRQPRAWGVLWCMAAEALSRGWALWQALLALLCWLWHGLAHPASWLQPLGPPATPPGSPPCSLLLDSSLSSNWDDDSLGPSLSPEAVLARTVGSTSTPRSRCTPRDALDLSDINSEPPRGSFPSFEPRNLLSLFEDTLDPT

PLK1 = PLK1 (Homo sapiens, UniProt P53350)
PRKD2 = PRKD2 (Homo sapiens, UniProt Q9BZL6)
Sequence of PRKD2 (Q9BZL6 whole entry): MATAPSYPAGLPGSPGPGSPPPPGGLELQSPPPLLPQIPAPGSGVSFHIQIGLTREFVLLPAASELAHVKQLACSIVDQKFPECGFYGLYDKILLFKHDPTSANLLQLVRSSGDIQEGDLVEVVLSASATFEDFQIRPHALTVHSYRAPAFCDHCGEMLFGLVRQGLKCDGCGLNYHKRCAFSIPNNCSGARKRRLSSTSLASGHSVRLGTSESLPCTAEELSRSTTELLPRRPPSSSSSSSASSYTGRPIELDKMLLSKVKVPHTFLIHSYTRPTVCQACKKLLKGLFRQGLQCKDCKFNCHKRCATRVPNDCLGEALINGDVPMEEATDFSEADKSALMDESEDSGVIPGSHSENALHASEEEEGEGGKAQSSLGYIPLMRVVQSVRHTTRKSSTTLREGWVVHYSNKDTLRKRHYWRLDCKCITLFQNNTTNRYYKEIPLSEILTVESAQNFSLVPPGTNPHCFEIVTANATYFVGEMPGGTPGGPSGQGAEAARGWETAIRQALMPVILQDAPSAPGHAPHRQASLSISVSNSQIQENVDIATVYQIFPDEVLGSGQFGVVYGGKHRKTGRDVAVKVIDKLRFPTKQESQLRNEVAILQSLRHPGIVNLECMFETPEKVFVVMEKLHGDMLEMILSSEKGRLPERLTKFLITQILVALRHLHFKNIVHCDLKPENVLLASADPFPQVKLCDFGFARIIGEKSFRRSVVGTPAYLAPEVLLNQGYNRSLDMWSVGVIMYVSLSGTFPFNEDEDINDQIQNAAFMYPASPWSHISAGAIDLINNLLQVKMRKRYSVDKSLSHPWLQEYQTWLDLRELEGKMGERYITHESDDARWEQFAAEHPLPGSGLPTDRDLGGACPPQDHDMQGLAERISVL

PRP4 = PRP4 (Homo sapiens, UniProt Q13523)
RET(M918T) = RET(M918T) (Homo sapiens, UniProt P07949, M918T)
RIOK2 = RIOK2 (Homo sapiens, UniProt Q9BVS4)
Sequence of RIOK2 (Q9BVS4 whole entry): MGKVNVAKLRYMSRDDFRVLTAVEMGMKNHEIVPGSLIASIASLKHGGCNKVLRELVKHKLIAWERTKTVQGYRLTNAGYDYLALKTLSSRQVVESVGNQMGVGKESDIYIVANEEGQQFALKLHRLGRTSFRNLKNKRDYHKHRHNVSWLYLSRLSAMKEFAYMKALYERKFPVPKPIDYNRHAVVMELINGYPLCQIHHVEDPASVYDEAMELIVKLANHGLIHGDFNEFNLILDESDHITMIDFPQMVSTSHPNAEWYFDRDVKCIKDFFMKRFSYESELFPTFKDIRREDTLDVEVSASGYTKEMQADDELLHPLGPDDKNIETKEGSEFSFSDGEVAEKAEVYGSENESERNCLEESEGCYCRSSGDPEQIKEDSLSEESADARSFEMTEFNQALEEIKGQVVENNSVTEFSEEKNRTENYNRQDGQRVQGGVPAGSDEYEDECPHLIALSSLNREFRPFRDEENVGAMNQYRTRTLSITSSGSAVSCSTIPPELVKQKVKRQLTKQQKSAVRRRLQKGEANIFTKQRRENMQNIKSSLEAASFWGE

SRC = SRC (Homo sapiens, UniProt P12931)
Sequence of SRC (P12931 whole entry): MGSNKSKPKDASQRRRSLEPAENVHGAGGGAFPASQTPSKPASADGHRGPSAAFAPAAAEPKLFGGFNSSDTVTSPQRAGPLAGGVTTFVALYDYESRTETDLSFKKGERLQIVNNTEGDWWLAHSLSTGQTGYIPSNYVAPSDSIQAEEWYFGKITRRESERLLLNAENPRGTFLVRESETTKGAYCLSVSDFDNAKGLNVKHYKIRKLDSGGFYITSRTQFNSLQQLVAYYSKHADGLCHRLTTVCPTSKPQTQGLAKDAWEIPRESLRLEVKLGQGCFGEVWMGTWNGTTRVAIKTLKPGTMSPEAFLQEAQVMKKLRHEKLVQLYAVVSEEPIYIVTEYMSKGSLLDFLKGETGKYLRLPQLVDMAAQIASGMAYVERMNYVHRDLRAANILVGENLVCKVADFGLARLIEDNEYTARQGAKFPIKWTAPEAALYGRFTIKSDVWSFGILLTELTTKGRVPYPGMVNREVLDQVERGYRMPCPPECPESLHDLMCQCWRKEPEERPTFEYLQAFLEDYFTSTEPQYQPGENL

SgK110 = SgK110 (Homo sapiens, UniProt P0C264)
Sequence of SgK110 (P0C264 whole entry): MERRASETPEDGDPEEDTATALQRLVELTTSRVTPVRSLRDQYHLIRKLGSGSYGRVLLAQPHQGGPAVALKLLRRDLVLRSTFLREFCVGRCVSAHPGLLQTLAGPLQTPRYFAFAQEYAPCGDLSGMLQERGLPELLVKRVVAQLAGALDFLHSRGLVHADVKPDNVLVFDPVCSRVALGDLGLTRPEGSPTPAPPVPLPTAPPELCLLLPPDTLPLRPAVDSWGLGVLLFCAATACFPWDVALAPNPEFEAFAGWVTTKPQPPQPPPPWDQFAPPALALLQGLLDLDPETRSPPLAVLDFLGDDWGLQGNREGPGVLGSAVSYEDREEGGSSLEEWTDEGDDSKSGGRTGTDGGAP

TAOK3 = TAOK3 (Homo sapiens, UniProt Q9H2K8)
TGFBR1 = TGFBR1 (Homo sapiens, UniProt P36897)
TNK1 = TNK1 (Homo sapiens, UniProt Q13470)
WEE1 = WEE1 (Homo sapiens, UniProt P30291)
WNK1 = WNK1 (Homo sapiens, UniProt Q9H4A3)
p38-gamma = p38-gamma (Homo sapiens, UniProt P53778)

Sequence of FLT1 (P17948 whole entry): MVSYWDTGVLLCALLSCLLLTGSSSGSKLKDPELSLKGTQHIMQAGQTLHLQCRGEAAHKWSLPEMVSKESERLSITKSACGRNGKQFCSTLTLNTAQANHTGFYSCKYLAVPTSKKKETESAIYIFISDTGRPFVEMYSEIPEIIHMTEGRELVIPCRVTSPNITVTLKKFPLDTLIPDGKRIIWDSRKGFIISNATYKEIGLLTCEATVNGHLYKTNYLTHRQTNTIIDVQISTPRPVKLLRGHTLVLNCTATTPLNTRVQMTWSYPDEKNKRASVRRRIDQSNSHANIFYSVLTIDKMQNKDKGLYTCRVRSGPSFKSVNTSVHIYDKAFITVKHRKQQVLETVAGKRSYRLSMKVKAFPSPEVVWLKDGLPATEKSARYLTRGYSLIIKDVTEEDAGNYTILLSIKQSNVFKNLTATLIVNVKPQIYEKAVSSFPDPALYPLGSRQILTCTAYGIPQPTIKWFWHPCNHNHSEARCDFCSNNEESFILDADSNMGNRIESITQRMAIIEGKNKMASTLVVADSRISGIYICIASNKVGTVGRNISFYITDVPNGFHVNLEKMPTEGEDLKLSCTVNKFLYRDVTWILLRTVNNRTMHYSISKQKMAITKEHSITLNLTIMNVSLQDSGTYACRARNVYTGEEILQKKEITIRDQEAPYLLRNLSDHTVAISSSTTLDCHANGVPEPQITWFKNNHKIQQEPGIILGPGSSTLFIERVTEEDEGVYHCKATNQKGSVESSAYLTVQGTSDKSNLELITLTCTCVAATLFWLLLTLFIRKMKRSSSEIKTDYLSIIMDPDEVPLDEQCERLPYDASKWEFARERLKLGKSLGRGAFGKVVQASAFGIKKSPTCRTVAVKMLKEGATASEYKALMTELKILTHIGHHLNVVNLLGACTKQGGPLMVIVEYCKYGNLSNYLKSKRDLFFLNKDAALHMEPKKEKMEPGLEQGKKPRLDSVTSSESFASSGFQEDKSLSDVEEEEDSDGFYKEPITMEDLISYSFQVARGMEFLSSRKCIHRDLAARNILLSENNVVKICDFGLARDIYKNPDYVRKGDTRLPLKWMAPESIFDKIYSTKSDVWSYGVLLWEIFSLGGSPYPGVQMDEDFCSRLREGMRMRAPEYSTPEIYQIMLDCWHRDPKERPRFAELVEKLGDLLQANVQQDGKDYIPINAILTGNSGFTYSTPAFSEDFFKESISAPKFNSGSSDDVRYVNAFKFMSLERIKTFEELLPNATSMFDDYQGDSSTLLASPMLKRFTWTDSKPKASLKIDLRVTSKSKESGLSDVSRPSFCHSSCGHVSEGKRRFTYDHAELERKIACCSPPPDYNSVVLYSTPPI
Sequence of BRAF (P15056 whole entry): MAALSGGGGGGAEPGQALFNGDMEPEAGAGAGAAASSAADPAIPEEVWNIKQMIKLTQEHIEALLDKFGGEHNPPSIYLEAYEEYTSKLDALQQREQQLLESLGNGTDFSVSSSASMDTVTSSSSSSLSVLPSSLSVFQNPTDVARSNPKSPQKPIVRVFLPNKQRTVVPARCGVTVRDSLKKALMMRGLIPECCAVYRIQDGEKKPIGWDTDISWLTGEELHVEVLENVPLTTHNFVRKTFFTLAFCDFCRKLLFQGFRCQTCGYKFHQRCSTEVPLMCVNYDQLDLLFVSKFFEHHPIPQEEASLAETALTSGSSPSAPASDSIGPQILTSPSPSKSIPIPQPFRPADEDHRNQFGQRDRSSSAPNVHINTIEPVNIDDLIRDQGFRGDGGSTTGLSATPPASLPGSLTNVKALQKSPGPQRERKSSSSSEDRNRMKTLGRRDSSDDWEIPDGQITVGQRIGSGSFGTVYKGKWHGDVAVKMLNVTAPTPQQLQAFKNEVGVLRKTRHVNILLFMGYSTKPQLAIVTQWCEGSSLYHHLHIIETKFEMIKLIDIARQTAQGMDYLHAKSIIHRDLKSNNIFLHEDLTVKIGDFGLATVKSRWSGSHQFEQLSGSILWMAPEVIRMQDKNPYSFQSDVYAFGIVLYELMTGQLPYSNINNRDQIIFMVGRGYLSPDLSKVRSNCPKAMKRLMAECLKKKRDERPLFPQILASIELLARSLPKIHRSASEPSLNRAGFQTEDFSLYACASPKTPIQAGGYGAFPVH

`CNc1ncc2cc(-c3ccc(-c4cccc(C)n4)cc3Cl)c(=O)n(C[C@H]3OC[C@H](N)CO3)c2n1` [compound 6, G-5555] was tested, and the “Percent Control” value (ABL1-nonphosphorylated) was 85%, the “Percent Control” value (BRAF) was 100% and the “Percent Control” value (CDK19) was 100%. The “Percent Control” value (CDK9) was 100%, the “Percent Control” value (EGFR) was 88% and the “Percent Control” value (ERBB2) was 100%. The “Percent Control” value (FLT1) was 100%, the “Percent Control” value (GRK2) was 100% and the “Percent Control” value (IKK-alpha) was 98%. For the same compound, the “Percent Control” value (MAP3K15) was 48%, the “Percent Control” value (MAPKAPK2) was 100% and the “Percent Control” value (MARK2) was 49%. The “Percent Control” value (MINK) was 26%, the “Percent Control” value (MST4) was 0% and the “Percent Control” value (NEK9) was 100%. For the same compound, the “Percent Control” value (PIK3C2G) was 100%, the “Percent Control” value (PKAC-alpha) was 100% and the “Percent Control” value (PKMYT1) was 100%. For the same compound, the “Percent Control” value (PLK1) was 94%, the “Percent Control” value (PRKD2) was 27% and the “Percent Control” value (PRP4) was 95%. For the same compound, the “Percent Control” value (RET(M918T)) was 100%, the “Percent Control” value (RIOK2) was 100% and the “Percent Control” value (SRC) was 100%. For the same compound, the “Percent Control” value (SgK110) was 71%, the “Percent Control” value (TAOK3) was 100% and the “Percent Control” value (TGFBR1) was 100%. The “Percent Control” value (TNK1) was 100%, the “Percent Control” value (WEE1) was 100% and the “Percent Control” value (WNK1) was 69%. For the same compound, the “Percent Control” value (p38-gamma) was 100%.
